We go through 1 compound from patent publication US20080004266A1, “Method for treating proliferative disorders associated with protooncogene products” (priority 2006, published 2008).

In one test the test system is Flt3 with Hsp90. Conditions: cited from earlier work.
For test [1], the system named is leukemia cell that express either wild type FLT3 or FLT3-ITD mutations. Conditions: cited from earlier work.
Another test concerns B-raf. The settings on record: A375 (V600E) versus CHL cells (wild type B-raf); cited from earlier work.
The next test relates to K562 cells (Bcr-Abl). The test can be described thus: Cell survival in K562 cells (Cell Counting Kit-8). The test is classed as cell-based, human. Conditions: 72 hours. As to the method:
Growth of this tumor cell line is dependent upon the expression of the Bcr-Abl fusion protein (C. Gambacarti-Passerini et al., Blood Cells Mol. Dis. 23:380-394, 1997). K562 cells (20,000 cells/well) were cultured in 96-well plates and maintained at 37° C. for several hours. […] 17AAG, DMAG, and Radicical are Hsp90 inhibitors that are currently in clinical trials and are used here as positive controls for Hsp90 inhibition. […] Cell survival was measured with Cell Counting Kit-8 (Dojindo Laboratories, Cat # CK04).

Test [2] has as its system Karpas-299 cells (NPM-ALK). The test can be described thus: Cell survival in Karpas-299 cells (Cell Counting Kit-8). The test is classed as cell-based, human. Conditions: 72 hours. As to the method: Growth of this tumor cell line is dependent upon the expression of the NPM-ALK fusion protein. Karpas-299 cells (20,000 cells/well) were cultured in 96-well plates and maintained at 37° C. for several hours. The cells were incubated at 37° C. for 72 hours with various concentrations of compound 226 of the invention, 17AAG, and 17DMAG. 17AAG and 17DMAG are Hsp90 inhibitors that are currently in clinical trials and are used here as positive controls for Hsp90 inhibition. Cell survival was measured with Cell Counting Kit-8 (Dojindo Laboratories, Cat # CK04).
(Formazan colour is commonly taken as a measure of viable cells.)

For a further test, the system named is A375 cells (B-raf V600E). The test can be described thus: Cell survival in A375 melanoma cells (Cell Counting Kit-8). The test is classed as cell-based, human. Conditions: 72 hours. As to the method: Human melanoma cell line, A375 (2×10^6 cells), which contains the V600E mutation in the B-raf protein that confers constitutive […] kinase activity, was obtained from American Type Culture Collection. A375 cells (20,000 cells/well) were cultured in 96-well plates and maintained at 37° C. for several hours. The cells were incubated at 37° C. for 72 hours with various concentrations of compound 226, 17AAG or 17DMAG. 17AAG and 17DMAG are Hsp90 inhibitors that are currently in clinical trials and are used here as positive controls for Hsp90 inhibition. Cell survival was measured with Cell Counting Kit-8 (Dojindo Laboratories, Cat # CK04).

Test [3] has as its system Kasumi-1 cells (c-Kit N822K). Put plainly: Cell survival in Kasumi-1 cells (Cell Counting Kit-8). Conditions: 72 hours. The test is classed as cell-based, human. On the procedure: Kasumi-1 cells (20,000 cells/well) were cultured in 96-well plates and maintained at 37° C. for several hours. […] 17AAG and DMAG are Hsp90 inhibitors that are currently in clinical trials and are used here as positive controls for Hsp90 inhibition. […] Cell survival was measured with Cell Counting Kit-8 (Dojindo Laboratories, Cat # CK04).

Another test concerns MV 4-11 cells (FLT3-ITD). Put plainly: Cell survival in MV-4-11 cells (Cell Counting Kit-8). The test is classed as cell-based, human. Conditions: 72 hours. On the procedure:
Human acute myelogenous leukemia (AML) cell line, MV 4-11 (ATCC #CRL-9591), was obtained from the American Type Culture Collection (ATCC; Manassas, Va., USA). Growth of this tumor cell line is dependent upon the expression of an activated form of the FLT3 tyrosine kinase receptor carrying an internal tandem duplication (ITD) mutation, which is the most common molecular defect associated with AML (K. W. Yee et al., Blood 100:2941-2949, 2002). MV 4-11 cells (20,000 cells/well) were cultured in 96-well plates and maintained at 37° C. for several hours. The cells were incubated at 37° C. for 72 hours with various concentrations of compounds of the invention, 17AAG, or DMAG. 17AAG and DMAG are Hsp90 inhibitors that are currently in clinical trials and are used here as positive controls for Hsp90 inhibition. Cell survival was measured with Cell Counting Kit-8 (Dojindo Laboratories, Cat # CK04).

The test system of test [4] is NPM-ALK. Put plainly: Degradation of NPM-ALK in Karpas-299 cells (Western blot). The test is classed as cell-based, human. The settings on record: 18 hours. On the procedure:
Anaplastic large-cell lymphoma cells, Karpas-299 cells (the German resource center for biological material) (2×10^6 cells), which harbor the fusion protein NPM-ALK, were treated (0.05 μM, 0.1 μM and 0.5 μM) with either Compound 226 or 17-AAG. After 18 hours and the cells were lysed with 1× lysis buffer and a western blot was perform using an anti-ALK antibody to detect and phosphorylated NPM-ALK and total NPM-ALK.
On the technique in general: In western blotting, separated proteins are transferred to a membrane and probed.

The next test deals with phosphorylated Bcr-Abl. Put plainly: Degradation of Bcr-Abl in KU812 cells (Western blot). The test is classed as cell-based. The settings on record: 18 hours. As to the method: KU812 chronic myeloid leukemia cells (ATCC) (2×10^6 cells), which harbor the Philadelphia chromosome that produces Bcr-Abl tyrosine kinase, were treated (0.1 μM and 1.0 μM) with either Compound 226, 17-AAG or 17-DMAG. After 18 hours, the cells were lysed with 1× lysis buffer, and a western blot was perform using anti-BCR-ABL antibody to detect phosphorylated Bcr-Abl.

A further test has as its system Kasumi-1 cells. The settings on record: mutation in c-kit; cited from earlier work.
Test [5] deals with NPM-ALK. Conditions: NPM-ALK expressing ALCL cells; cited from earlier work.
The test system of a further test is V600E mutant B-raf. Put plainly: Degradation of B-raf in A375 melanoma cells (Western blot). The test is classed as cell-based, human. Conditions: 18 hours, at 0.5 mM and 0.1 mM (so in the source). On the procedure:
[…] After 18 hours, the cells were lysed with 1× lysis buffer and a western blot was perform, and B-raf was detected with anti-B-raf antibody.

For test [6], the system named is NCI-H1975 cells (EGFR T790M and L858R). Put plainly: Cell survival in NCI-H1975 cells (Cell Counting Kit-8). Conditions: 72 hours. The test is classed as cell-based, human. As to the method: Human lung cancer cell line NCI-H1975 which harbors both the T790M and the L858R mutations in EGFR was obtained from American Type Culture Collection. NCI-H1975 (10,000 cells/well) were cultured in 96-well plates and maintained at 37° C. for several hours. The cells were incubated at 37° C. for 72 hours with various concentrations of compound 226 of the invention, 17AAG or DMAG. 17AAG and DMAG are Hsp90 inhibitors that are currently in clinical trials and are used here as positive controls for Hsp90 inhibition. Cell survival was measured with Cell Counting Kit-8 (Dojindo Laboratories, Cat # CK04).

`C=CCNC1=C2C[C@@H](C)C[C@H](OC)[C@H](O)[C@@H](C)/C=C(\C)[C@H](OC(N)=O)[C@@H](OC)/C=C\C=C(/C)C(=O)NC(=CC1=O)C2=O` [Compound 17AAG, 17-allylamino-17-desmethoxygeldanamycin]: in the test with Flt3 with Hsp90, the “association of Flt3 with Hsp90” value is reported as “disrupt the association of Flt3 with Hsp90”. Further, the “growth of leukemia cells” value in [1] is “inhibited”. For the same compound, in the test with B-raf, the “degradation of B-raf” value is reported as “degraded more rapidly than in CHL cells”. In addition, the half-maximal inhibitory concentration (IC50) – broadly, the concentration that gives 50% inhibition – amounted to 122 nM with K562 cells (Bcr-Abl); 506 nM in [2]; 70 nM in the test on A375 cells (B-raf V600E); 685 nM in test [3]; 35 nM in the test on MV 4-11 cells (FLT3-ITD); 446 nM in test [6]. For the same compound, the “degradation of phosphorylated and total NPM-ALK” value in the test with NPM-ALK [4] (0.05 μM and 0.1 μM) was “no effect”; in the test with NPM-ALK [4] (0.5 μM), “partial degradation”. The “degradation of phosphorylated Bcr-Abl” value is on record as “did not degrade” with phosphorylated Bcr-Abl (0.1 μM) and “partially degraded” with phosphorylated Bcr-Abl (1.0 μM). Also, the apoptosis entry with Kasumi-1 cells is listed as “induce apoptosis”. Also, the “cell cycle and apoptosis” value with NPM-ALK [5] was “induce cell-cycle arrest and apoptosis”. Moreover, the “degradation of NPM-ALK” value in the test on NPM-ALK [5] is given as “increased degradation of NPM-ALK”. The “degradation of V600E mutant B-raf” value in the test with V600E mutant B-raf was “did not induce significant degradation”.
